In patent US6309842A, “Use of modified tethers in screening compound libraries” (Glaxo Wellcome Inc., priority 1997, dated 2001):

Key:
[1] = molecular target: RARa (Retinoic Acid Receptor alpha) (Homo sapiens, UniProt P10276); assay: Gal4 DNA binding domain/RARa fusion with 5x UAS-tk-SEAP reporter in CHOK1 cells
Procedure: The Gal4 DNA response element (5× UAS) was cloned upstream of the SEAP reporter gene, driven by the tk promoter, into the pGL3 vector (Promega). The pSG5 vector (Stratagene) was used to clone a Gal4 DNA Binding Domain/RARa (Retinoic Acid Receptor alpha)(carboxy end) fusion. These two plasmids were simultaneously transiently lipofected into CHOK1 cells using with Lipofectamine (Gibco BRL). The lipofected cells were seeded into individual wells on 2, 96-well culture plates (Falcon). The cells were grown for 16 hr in 100 μl/well Optimem Media (Gibco) with 10% dilapidated serum (Sigma) that was heat treated at 65° C. for 45 minutes before adding to the media. Serum was heated to inactivate endogenous phosphatases. After 16 hr growth at 37° C., there were 10^4 cells/well. Cells in one plate were stimulated with 1 μM retinoic acid; the cells in the other plate were not stimulated. Media was the same. The plates were incubated in the 37° C. cell culture incubator for another 24 hr. The supernatants were removed from the individual wells on the plates. All supernatants from stimulated cells were pooled; all supernatants from nonstimulated cells were pooled. Both were stored at 4° C. overnight. The cells were discarded.
The next day, 100 μl of each supernatant was tested for SEAP activity using the Tropix Chemiluminescent Assay Kit, as before.

[2] = molecular target: T1, IL-1R (Homo sapiens, UniProt P14778); assay: IL-1R binding assay
T1 sequence (P14778 18-569): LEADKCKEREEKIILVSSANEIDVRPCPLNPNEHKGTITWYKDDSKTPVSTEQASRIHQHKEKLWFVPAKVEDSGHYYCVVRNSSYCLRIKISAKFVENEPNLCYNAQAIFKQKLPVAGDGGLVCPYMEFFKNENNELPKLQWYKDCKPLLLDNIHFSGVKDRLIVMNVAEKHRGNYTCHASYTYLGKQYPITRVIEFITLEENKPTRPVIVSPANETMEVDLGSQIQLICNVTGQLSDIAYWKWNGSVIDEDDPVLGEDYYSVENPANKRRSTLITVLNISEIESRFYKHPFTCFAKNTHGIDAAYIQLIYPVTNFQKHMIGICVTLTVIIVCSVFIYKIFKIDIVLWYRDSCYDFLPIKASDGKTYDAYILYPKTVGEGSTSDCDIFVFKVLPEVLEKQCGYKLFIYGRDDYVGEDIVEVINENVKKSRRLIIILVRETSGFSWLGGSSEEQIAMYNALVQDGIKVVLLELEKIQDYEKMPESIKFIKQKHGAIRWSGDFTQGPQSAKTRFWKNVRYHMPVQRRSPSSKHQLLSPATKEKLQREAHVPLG

[3] = tested on: IL-1RFc; assay: Competition assay, IL-1RFc held on reservoir beads, released AP activity; type: binding; settings: beads coated with streptavidin or biotin-MBP-AF12413
Source text: This example uses two classes of beads referred to as reservoir beads and library beads. The reservoir beads have receptor immobilized via a known ligand. The library beads have compounds to be screened, identifier tags and tethers as before. A compound released from a library bead competes a labelled receptor from a reservoir bead, and the labelled receptor, directly or indirectly, modifies a tether on proximate library beads. Both sets of beads can be added to nanowells for performing the assay.
500 μl beads (Polysciences, Inc., 2.5% Solids-latex, 2 μm) were washed twice with PBS, resuspended in 1 ml of PBS and split into 5 tubes (a, b, c, d, e). 300 μl 1 mg/ml coating protein was added per tube and incubated at 37° C. for 3 hr on shaker. The beads were washed with PBT. Coating proteins were added in the five tubes as follows: a. BSA-Biotin (Sigma), b. BSA (LC)-Biotin (Sigma), c. Hemocyanin-Biotin (Sigma), d. Streptavidin (Gibco BRL), e. Biotin-MBP-AF12413 [[…](biotin)[…] (SEQ ID NO:30)-maltose binding protein-[…] (SEQ ID NO:31)].
The beads were blocked with 1 ml PBT and incubated at room temperature overnight on shaker and washed with PBT. 300 μl of 1 mg/ml streptavidin and 1.2 ml PBT were added to a, b, c, tubes, which were incubated at; 37° C. for 1 hour on shaker. The tubes were washed twice in PBS. […]

RARa (Retinoic Acid Receptor alpha), sequence (P10276 whole entry, the tested form may be a part): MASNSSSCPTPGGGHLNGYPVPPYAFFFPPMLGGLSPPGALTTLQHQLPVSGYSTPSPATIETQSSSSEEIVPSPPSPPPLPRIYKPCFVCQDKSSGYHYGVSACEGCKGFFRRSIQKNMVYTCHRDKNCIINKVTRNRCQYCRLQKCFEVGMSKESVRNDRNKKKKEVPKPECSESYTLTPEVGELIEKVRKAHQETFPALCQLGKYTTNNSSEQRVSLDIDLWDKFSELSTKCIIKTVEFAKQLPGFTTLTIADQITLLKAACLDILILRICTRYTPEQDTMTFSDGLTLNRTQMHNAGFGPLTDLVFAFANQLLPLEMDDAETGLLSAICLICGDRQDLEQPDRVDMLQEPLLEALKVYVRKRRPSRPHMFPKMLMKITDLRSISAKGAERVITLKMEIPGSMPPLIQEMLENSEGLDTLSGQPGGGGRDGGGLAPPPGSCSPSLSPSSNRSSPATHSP

IC50 [2]	Molecule	SEAP produced in supernatant ([1]; 1 μM retinoic acid, 24 hr stimulation)	fold induction at 1 µM ([1]; CHO-K1, 24 h, read-out: Increase in SEAP production upon stimulation)	Signal of released AP activity [3]
–	CC1=C(/C=C/C(C)=C/C=C/C(C)=C/C(=O)O)C(C)(C)CCC1 [retinoic acid]	about 0.52 units of SEAP/ml	126	–
~2 nM	NH2-YEWTPGYYQJY-NH2 [AF12304]	–	–	only background signals
